Data set [1] relates to HBeAg (surrogate marker for cccDNA) in HepDES19 cells. Put plainly: Engineered HepDES19 primary screen assay (HBeAg ELISA). It counts as cell-based, HBV. As to conditions: Hepatitis B virus, HepDES19, 120 h, read-out: IC50 (HBeAg level, HepDES19 primary screen assay), HepDES19 cells, 5 days compound incubation, HBeAg ELISA. The method, boiled down: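 HepDES19 cells were induced by Tet withdrawal for 8 days, then treated with half-log compound dilutions (1% DMSO final) for 5 days at 37 °C. HBeAg was measured by ELISA as the cccDNA surrogate, viability by CCK-8, and IC50 from a 4-parameter logistic fit.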

Data set [2] in a line: Human microsome stability assay. It counts as in vitro ADME. The following applies: human liver microsomes, 1 μM test compound, 0.5 mg/mL microsomal protein, 37° C., pH 7.4, 0-30 minutes. The gist of the method: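 Compound (1 μM) incubated at 37 °C with human liver microsomes (0.5 mg/mL protein) in 100 mM potassium phosphate, pH 7.4, after 10 min preincubation; started with NADPH regenerating system. Sampled at 0–30 min, quenched with cold ACN; remaining parent quantified by LC-MS/MS, with no-NADPH controls.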
(Microsomes from liver hold many membrane-bound enzymes, among them those of drug oxidation.)

SMILES strings stand for the structures.

With `CS(=O)(=O)NC(=O)[C@H]1C[C@@H](Oc2cc(Br)ccc2-c2cc(=O)c3cccc(Cl)c3o2)C1` [Example B044-A, cis-3-[5-bromo-2-(8-chloro-4-oxo-chromen-2-yl)phenoxy]-N-methylsulfonyl-cyclobutanecarboxamide], the IC50 in data set [1] was found to be 4.62 µM. Besides, the “Clearance of Human microsome” value in data set [2] is given as 6.15 mL/min/kg.
The matching figures for `CS(=O)(=O)NC(=O)[C@H]1C[C@H](Oc2cc(Br)ccc2-c2cc(=O)c3cccc(Cl)c3o2)C1` [Example B044-B, trans-3-[5-bromo-2-(8-chloro-4-oxo-chromen-2-yl)phenoxy]-N-methylsulfonyl-cyclobutanecarboxamide]: 3.72 µM and 6.15 mL/min/kg.
For `CS(=O)(=O)NC(=O)[C@H]1C[C@H](Oc2cc(OC(F)(F)F)ccc2-c2cc(=O)c3cccc(Cl)c3o2)C1` [Example B047-B, Trans-3-[2-(8-chloro-4-oxo-chromen-2-yl)-5-(trifluoromethoxy)phenoxy]-N-methylsulfonyl-cyclobutanecarboxamide], in that order: 3.76 µM and 6.15 mL/min/kg.
Consider `CS(=O)(=O)NC(=O)[C@H]1C[C@@H](Oc2cc(C(F)(F)F)ccc2-c2cc(=O)c3cccc(Cl)c3o2)C1` [Example B048-A, Cis-3-[2-(8-chloro-4-oxo-chromen-2-yl)-5-(trifluoromethyl)phenoxy]-N-methylsulfonyl-cyclobutanecarboxamide], for which the half-maximal inhibitory concentration (IC50) in data set [1] turned out to be 0.632 µM. In addition, the “Clearance of Human microsome” value in data set [2] is on record as 6.15 mL/min/kg.
Turning to `CS(=O)(=O)NC(=O)[C@H]1C[C@H](Oc2cc(C(F)(F)F)ccc2-c2cc(=O)c3cccc(Cl)c3o2)C1` [Example B048-B, Trans-3-[2-(8-chloro-4-oxo-chromen-2-yl)-5-(trifluoromethyl)phenoxy]-N-methylsulfonyl-cyclobutanecarboxamide], the IC50 in data set [1] amounted to 3.08 µM. Further, the “Clearance of Human microsome” value in data set [2] came to 6.15 mL/min/kg.
As for `Cc1cc(-c2cc(=O)c3cccc(Cl)c3o2)c(O[C@H]2C[C@@H](C(=O)NS(C)(=O)=O)C2)cc1Br` [Example B049-A, Cis-3-[5-bromo-2-(8-chloro-4-oxo-chromen-2-yl)-4-methyl-phenoxy]-N-methylsulfonyl-cyclobutanecarboxamide], the concentration for half-maximal inhibition (IC50) in data set [1] turned out to be 12.2 µM. Besides, the “Clearance of Human microsome” value in data set [2] stood at 7.5 mL/min/kg.
The matching figures for `COc1cc(O[C@H]2C[C@@H](C(=O)NS(C)(=O)=O)C2)c(-c2cc(=O)c3cccc(Cl)c3o2)cc1C` [Example B050-A, Cis-3-[2-(8-chloro-4-oxo-chromen-2-yl)-5-methoxy-4-methyl-phenoxy]-N-methylsulfonyl-cyclobutanecarboxamide]: 7.03 µM and 6.15 mL/min/kg.
For the compound `COc1cc(-c2cc(=O)c3cccc(Cl)c3o2)c(O[C@H]2C[C@@H](C(=O)NS(C)(=O)=O)C2)cc1Br` [Example B053-A, Cis-3-[5-bromo-2-(8-chloro-4-oxo-chromen-2-yl)-4-methoxy-phenoxy]-N-methylsulfonyl-cyclobutanecarboxamide], the IC50 in data set [1] was 3.36 µM. The “Clearance of Human microsome” value in data set [2] turned out to be 6.15 mL/min/kg.
As to `COc1cc(-c2cc(=O)c3cccc(Cl)c3o2)c(O[C@H]2C[C@H](C(=O)NS(C)(=O)=O)C2)cc1Br` [Example B053-B, Trans-3-[5-bromo-2-(8-chloro-4-oxo-chromen-2-yl)-4-methoxy-phenoxy]-N-methylsulfonyl-cyclobutanecarboxamide], in data set [1], the IC50 amounted to 0.912 µM. Besides, in data set [2], the “Clearance of Human microsome” value worked out at 6.15 mL/min/kg.
Take `COc1cc(-c2cc(=O)c3cccc(Cl)c3o2)c(O[C@H]2C[C@@H](C(=O)NS(=O)(=O)C3CC3)C2)cc1Br` [Example B054, Cis-3-[5-bromo-2-(8-chloro-4-oxo-chromen-2-yl)-4-methoxy-phenoxy]-N-cyclopropylsulfonyl-cyclobutanecarboxamide]: the IC50 in data set [1] was 1.65 µM. Besides, the “Clearance of Human microsome” value in data set [2] is recorded as 6.15 mL/min/kg.

The term IC50 denotes the concentration needed to halve the response being measured.
